Reference: patent US20080132689A1, “Labile Linkage for Compound Delivery to a Cell” (priority 2003, published 2008)

What was measured:
[1] = tested on: Hepa mouse hepatoma cells; assay: DNA transfection with crosslinked pCIluc/DW921 complexes, luciferase expression; type: cell-based; settings: pCIluc 10 μg/mL, DW921 100 μg/mL, 48 h, average of two wells
Method: To a solution of plasmid DNA pCIluc (10 μg/mL, 0.075 mM in phosphate, 2.6 μg/μL pCIluc; prepared according to Danko et al. 1997) in 0.5 mL of 150 mM NaCl and 5 mM TAPS pH 9 was added 100 μg/mL DW921. The complexes were then reacted with glutaraldehyde, periodate oxidized phenyl glucoside (another crosslinker containing a labile bond), or periodate oxidized salicylic galactoside at 1, 2, 4, 8, or 16 μg/mL. The complexes were then added (200 μL) to wells containing Hepa mouse hepatoma cells in Dulbecco's modified Eagle's Media containing 10% fetal bovine serum. The cells were allowed to incubate for 48 h. The cells were then harvested and assayed for luciferase expression as previously reported. The amount of transfection was reported in relative light units and is the average transfection for two separate wells of cells.

[2] = Measurement of acetal kinetics (rate of acetal hydrolysis in buffered solutions, by absorbance); type: physicochemical
Description: To illustrate the rate of cleavage of several example ortho carboxy phenol derived acetals, we synthesized the molecules 1-3 (shown in FIG. 2) and measured the rates of acetal hydrolysis for each at pH 5.2-7.3. • Acetal 1. R′, R=alkyl; and R1, R2, R3, R4=hydrogen • Acetal 2. R′, R=alkyl; R1, R4=hydrogen; R2=carboxyl (carbon-containing group); R3=hydroxyl (heteroatom) • Acetal 3. R′=alkyl; R, R2, R3, R4=hydrogen; and R1=carboxyl (carbon-containing group)
To determine the rate of acetal hydrolysis, compounds 1-3 were added to buffered solutions (pH 7-8 with 5 mM HEPES, or pH 5-7 with 5 mM acetate) at various pH values and the absorbance of the solution was measured as a function of time (λ=302 nm for 1 and 2 and 310 nm for 3). The rate constant was determined by determining the slope of the line derived from plotting ln[1-((A∞-At)/(A∞-AO))] as a function of time t, where A∞ is absorbance after>3 hours of hydrolysis, At is the absorbance at time t, and AO is the initial absorbance. The half-life of the hydrolysis equals ln[2] divided by the rate constant.

With `O=CCCCC=O` [glutaraldehyde] the “Relative Light Units” value ([1]; 1 μg/mL dialdehyde crosslinker) was 915 Relative Light Units, the “Relative Light Units” value ([1]; 2 μg/mL dialdehyde crosslinker) was 620 Relative Light Units and the “Relative Light Units” value ([1]; 4 μg/mL dialdehyde crosslinker) was 1,400 Relative Light Units. For the same molecule, the “Relative Light Units” value ([1]; 8 μg/mL dialdehyde crosslinker) was 590 Relative Light Units and the “Relative Light Units” value ([1]; 16 μg/mL dialdehyde crosslinker) was 565 Relative Light Units.

In the case of `CC(C)CCOC(C)Oc1ccccc1C(=O)O` (centres unmarked) [Acetal 1], the “half-life (minutes) of acetal hydrolysis” value ([2]; pH 7.3) is reported as 1.0 min.

In the case of `CC(C)[C@@H]1CC[C@@H](C)C[C@H]1OCOc1c(C(=O)O)cccc1C(=O)O` [Acetal 3], the “half-life (minutes) of acetal hydrolysis” value ([2]; pH 5.2) is reported as 0.22 min and the “half-life (minutes) of acetal hydrolysis” value ([2]; pH 6.5) is reported as 4.7 min.
